# Test results reported in patent US10208007B2, “Use of strigolactones and strigolactone analogs for treating proliferative conditions” (The State of Israel, Ministry of Agriculture & Rural …, priority 2011, dated 2019).
# Experiments:
# Format in all cases: cell-based, human
# [1] = system: MDA-MB-231 mammospheres; experiment: Mammosphere formation
# Protocol: Adherent cells were gently trypsinized, (0.05% trypsin/EDTA) washed twice in PBS and filtered through a […] cell sieve to obtain a single cell suspensions. Cells were diluted to a concentration of 10,000 cell/ml in serum-free phenol-red free MEBM (MEGM Bulletkit, Lonza) supplemented with 5 μg/ml bovine insulin, 20 ng/ml recombinant epidermal growth factor, 20 ng/ml basic fibroblast growth factor (Gibco), 1×B27 supplement, 0.5 μg/ml hydrocortisone (MEGM Bulletkit, Lonza). For MDA-MB-231 mammosphere cultures serum-free phenol red-free CnT-27 medium with growth additives (CellnTEC Advanced cell systems, Bern, Switzerland) was used as previously described. 0.1 ml was seeded per well of a Ultralow attachment 96 well plates. The following day the indicated doses of GR-24 (ppm) or vehicle alone (0.6% acetone f/c) were added. Media was replenished every 3-4 days. Self-renewal capacity of the mammospheres was determined by re-plating and producing further generations of mammospheres. Secondary mammospheres were cultivated by dissociation (trypsinization with gently vortexing) of 10-14 day old primary mammospheres. Single cell suspensions were obtained as described above.
# [2] = system: HCT116 cells; experiment: FACS analysis of phospho-Ser10 Histone-H3; conditions: 2.7% in vehicle controls
# Protocol: Adherent cells were trypsinyzed, washed twice with PBS and filtered through a […] cell sieve. DNA content was assessed by flow cytometry. Cells were seeded at densities of 1.5×10^5 cells (MDA-MB-231, MDA-MB-436), or 4×10^5 cells (MCF-7 and MCF10A), or 2×10^5 cells (SW480, HT-29), or 5×10^5 cells (HCT116), per well in DMEM with 10% FBS in 6-well plate culture dishes. […] After 48 hours, cells were washed twice with PBS (pH 7.4), centrifuged at 360 g for 10 minutes at 4° C., and fixed in chilled ethanol (70%; v/v in PBS) with gentle vortex mixing. To determine their DNA contents, the cells were stained with 40 μg/ml propidium iodide (hereinafter PI) and analyzed using a FACSCalibur flow cytometer and CellQuest analysis software (Becton Dickinson, San Jose, Calif.). Where phosphoHistone-H3 staining was carried out, cells were incubated with polyclonal antibody against phosphoHistone H3 and then with secondary Goat anti-rabbit IgG-conjugated to FITC prior to PI staining.
# Chromosome condensation at mitosis is accompanied by phosphorylation of histone H3. Accordingly, in order to determine if cells were arresting at G2 or M phase, HCT116 cells were analyzed for pS10 Histone H3 following strigolactone analogs exposure. […] To further quantify whether the growth inhibition observed in-vitro following strigolactone treatment was due in part to apoptosis, HCT116 cells were dual stained with Annexin V and PI (Prodidium Iodide). Annexin V staining indicate the inversion of the inner leaflet of the plasma membrane an early event of apoptosis. Late apoptosis is characterized by loss of membrane integrity and cells become permeable to PI. […] Cells were incubated for 48 hours and then co-stained with annexin-V and PI (FIG. 12F). Following treatment with 10 ppm and 15 ppm MEB-55, the percentage of late apoptotic cell increased from 3.6% to 62% and 85% respectively (FIG. 12F, lower panel). […] Dual Annexin V/PI staining analysis was also carried out on two other colon cancer cell lines, (SW480, HT29) following strigolactone treatment. Increased apoptosis was also observed in these lines following MEB-55 treatment in a dose dependent manner (FIG. 12D).
# [3] = system: JNK1/2 phosphorylation; experiment: Immunoblot with densitometric quantification
# Protocol: (§1) Protein concentration was determined using the BCA Protein Assay (Pierce), and 20-50 μg of lysate were separated in a 4-12% SDS-PAGE gel. After transfer, membranes were blocked for 15-30 min at room temperature in 5% BSA (Sigma) in Tris-buffered saline containing 0.1% Tween-20. Primary antibody was incubated for either 1.5 hours at room temperature or overnight at 4° C. Secondary antibody was incubated for 30-45 min at room temperature, and proteins were visualized with West Pico Stable (Pierce). All antibodies were used at 1:1000 dilution unless otherwise stated. pT308AKT, AKT, pT180/Y182, pT183/Y185 P38MAPK, pP38MAPK, pT202/Y204 pERK1/2, ERK1, pT183/Y185, pJNK1/2, JNK1, pT71ATF2, pT581MSK1, pT14 Cdc2, Cdc2, pT68Chk2 (cell signaling), pT334MAPKAPK, pS82HSP27 (Cell Signaling Technology, Danvers, Mass.), α-tubulin (Biomarkers, 1:50,000), Cyclin B1 (Santa Cruz Biotechnologies) and horseradish peroxidase-conjugated anti-rabbit IgG and anti-mouse IgG (1:5,000, Pierce).
# (§2) Densitometric quantifications were carried out using ImageJ software (NIMH).
# (§3) To investigate the signaling mechanisms elicited by strigolactone analogs in cancer cells, MDA-MB-231, DU145 and HCT116 cells were treated with strigolactone analogs for 1, 4 or 8 hours and lysates were analyzed by immuno-blotting. The family of MAPK enzymes plays a pivotal role in cell growth, survival and cellular stress responses. The best characterized MAPKs fall into three families: (i) the mitogen activated extracellular signal regulated kinases (ERK1/2) which are activated in response to positive proliferation signals, (ii) c-Jun amino (N)-terminal kinases (JNK1/2/3) and (iii) p38 isoforms (p38α, β, γ, δ), all are activated by environmental stress stimuli such as DNA damage, UV irradiation and inflammatory cytokines.
# [4] = system: pERK1/2; experiment: Immunoblot with densitometric quantification; conditions: DU145, after 1 hour
# Protocol: as §1, §2, §3
Compound,Mammosphere growth ([1]; 2.5 ppm),Mammosphere formation ([1]; 5 ppm),"Concentration to block mammosphere formation, fold lower than IC50 dose for monolayer growth ([1]; MDA-MB-231)",Percentage of cells staining positive for pHistone H3 ([2]; 5 ppm),Percentage of cells staining positive for pHistone H3 ([2]; 7.5 ppm),"JNK1/2 phosphorylation increase ([3]; DU145, 4 hours)","Decrease of JNK1/2 phosphorylation from the 4 hours level ([3]; DU145, 8 hours)",pERK1/2 levels reduction [4]
"CC1=C[C@H](O/C=C2/C(=O)O[C@@H]3c4ccccc4C[C@H]23)OC1=O (relative stereo) [GR-24, (3aR*,8bS*,E)-3-(((R*)-4-methyl-5-oxo-2,5-dihydrofuran-2-yloxy)methylene)-3,3a,4,8b-tetrahydro-2H-indeno[1,2-b]furan-2-one]",severely attenuated,completely blocked,2.7 fold,–,–,–,–,–
"CC1=CC(O/C=C2/C(=O)c3c(c4cc(-c5cccs5)ccc4n3C)C2C)OC1=O (stereo not shown) [ST-357, (2E)-1,4-dimethyl-2-((4-methyl-5-oxo-2,5-dihydrofuran-2-yloxy)methylene)-7-(thiophen-2-yl)-1,2-dihydrocyclopenta[b]indol-3(4H)-one]",–,–,–,0.7%,0.3%,–,–,–
"CC1=CC(O/C=C2\Cc3c(n(C)c4cc(-c5cccs5)ccc34)C2=O)OC1=O (racemic) [MEB-55, (±) 2E-4-methyl-2-(4-methyl-5-oxo-2,5-dihydrofuran-2-yloxymethylene)-6-thiophen-2-yl-1,4-dihydro-2H-cyclopenta[b]indol-3-one]",–,–,–,1.45%,0.9%,15 fold,50%,4 fold
